Measured values from patent US7485641B2, “Substituted 3-amino-pyrrolidino-4-lactams” (Pfizer, Inc., priority 2006, dated 2009).
Structures can show the parent of a compound that is named as a salt.

molecular target: T1, DPP-IV (Homo sapiens, UniProt P27487); experiment: In vitro assay for dipeptidyl peptidase inhibition; type: biochemical; conditions: Examples 156-162; n-value in brackets; IC50's or percent inhibition at 300 nM; read-out: DPP-IV inhibition
T1 construct: purchased Enzyme Systems Products SPE-01
T1 sequence (P27487 whole entry, species assumed): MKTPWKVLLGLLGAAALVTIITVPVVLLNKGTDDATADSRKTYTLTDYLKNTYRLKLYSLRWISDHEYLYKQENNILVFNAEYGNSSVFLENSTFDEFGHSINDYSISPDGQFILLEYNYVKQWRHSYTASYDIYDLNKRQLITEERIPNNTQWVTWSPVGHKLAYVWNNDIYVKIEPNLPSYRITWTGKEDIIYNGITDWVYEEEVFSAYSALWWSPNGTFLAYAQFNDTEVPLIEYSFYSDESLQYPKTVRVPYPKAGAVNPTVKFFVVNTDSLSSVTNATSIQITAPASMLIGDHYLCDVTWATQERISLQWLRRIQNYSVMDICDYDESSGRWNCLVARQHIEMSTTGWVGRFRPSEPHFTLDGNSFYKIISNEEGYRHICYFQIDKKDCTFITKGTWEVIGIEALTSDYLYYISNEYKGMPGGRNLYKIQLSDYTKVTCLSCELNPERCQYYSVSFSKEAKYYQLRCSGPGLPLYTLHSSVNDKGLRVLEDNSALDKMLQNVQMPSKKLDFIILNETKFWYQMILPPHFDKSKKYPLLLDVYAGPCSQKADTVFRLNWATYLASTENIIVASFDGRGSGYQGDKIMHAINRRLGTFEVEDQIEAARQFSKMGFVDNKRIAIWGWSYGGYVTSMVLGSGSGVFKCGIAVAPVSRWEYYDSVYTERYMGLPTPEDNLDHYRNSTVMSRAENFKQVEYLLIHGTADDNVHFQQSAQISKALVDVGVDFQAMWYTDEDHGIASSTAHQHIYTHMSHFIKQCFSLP

IC50 | Compound
0.187 µM | N[C@H]1CN(C(=O)c2cc3ccccc3o2)C[C@@H]1N1CCCCC1=O [Example 156, 1-[(3S,4S)-4-Amino-1-(benzofuran-2-carbonyl)-pyrrolidin-3-yl]-piperidin-2-one hydrochloride]
0.212 µM | N[C@H]1CN(C(=O)c2cc3cc(Cl)ccc3o2)C[C@@H]1N1CCCCC1=O [Example 157, 1-((3S,4S)-4-amino-1-(5-chlorobenzofuran-2-carbonyl)pyrrolidin-3-yl)piperidin-2-onetrifluoroacetate]
0.231 µM | N[C@H]1CN(C(=O)c2cc3ccc(Cl)cc3o2)C[C@@H]1N1CCCCC1=O [Example 158, 1-((3S,4S)-4-amino-1-(6-chlorobenzofuran-2-carbonyl)pyrrolidin-3-yl)piperidin-2-onetrifluoroacetate]
0.0793 µM | COc1ccc2oc(C(=O)N3C[C@H](N)[C@@H](N4CCCCC4=O)C3)cc2c1 [Example 159, 1-[(3S,4S)-4-Amino-1-(5-methoxy-benzofuran-2-carbonyl)-pyrrolidin-3-yl]-piperidin-2-onehydrochloride]
0.317 µM | N[C@H]1CN(C(=O)c2cc3ccccc3s2)C[C@@H]1N1CCCCC1=O [Example 160, 1-[(3S,4S)-4-Amino-1-(benzo[b]thiophene-2-carbonyl)-pyrrolidin-3-yl]-piperidin-2-onehydrochloride]
1.16 µM | N[C@H]1CN(C(=O)c2cc3cc(Cl)ccc3[nH]2)C[C@@H]1N1CCCCC1=O [Example 161, 1-[(3S,4S)-4-Amino-1-(5-chloro-1H-indole-2-carbonyl)-pyrrolidin-3-yl]-piperidin-2-onehydrochloride]
1.46 µM | COc1ccc2[nH]c(C(=O)N3C[C@H](N)[C@@H](N4CCCCC4=O)C3)cc2c1 [Example 162, 1-[(3S,4S)-4-Amino-1-(5-methoxy-1H-indole-2-carbonyl)-pyrrolidin-3-yl]-piperidin-2-onehydrochloride]

same assay, conditions: at 300 nM; n-value given in brackets

DPP-IV Percent Inhibition at 300 nM | Compound
47/3%(4) | N[C@H]1CN(c2ncnc3cc(OS(=O)(=O)c4ccc(F)cc4)ccc23)C[C@@H]1N1CCCCC1=O [Example 142, 4-Fluoro-benzenesulfonic acid 4-[(3S,4S)-3-amino-4-(2-oxo-piperidin-1-yl)-pyrrolidin-1-yl]-quinazolin-7-ylester]

same assay, conditions: at 300 nM; n-value given in brackets; read-out: DPP-IV Percent Inhibition at 300 nM

inhibition at 0.3 µM | Compound
24.1% | CC(C)S(=O)(=O)c1ccc2c(N3C[C@H](N)[C@@H](N4CCCCC4=O)C3)ncnc2c1 [Example 138, 1-((3S,4S)-4-amino-1-(7-(isopropylsulfonyl)quinazolin-4-yl)pyrrolidin-3-yl)piperidin-2-one trifluoroacetate]
33.5% | CCS(=O)(=O)c1ccc2c(N3C[C@H](N)[C@@H](N4CCCCC4=O)C3)ncnc2c1 [Example 139, 1-((3S,4S)-4-amino-1-(7-(ethylsulfonyl)quinazolin-4-yl)pyrrolidin-3-yl)piperidin-2-one]
41% | N[C@H]1CN(c2ncnc3cc(OS(=O)(=O)c4ccc(F)c(F)c4)ccc23)C[C@@H]1N1CCCCC1=O [Example 144, 4-((3S,4S)-3-amino-4-(2-oxopiperidin-1-yl)pyrrolidin-1-yl)quinazolin-7-yl 3,4-difluorobenzenesulfonate]

same assay, conditions: n-value given in brackets; read-out: DPP-IV IC50

Compound | IC50
CCS(=O)(=O)Oc1ccc2c(N3C[C@H](N)[C@@H](N4CCCCC4=O)C3)ncnc2c1 [Example 134, 4-((3S,4S)-3-amino-4-(2-oxopiperidin-1-yl)pyrrolidin-1-yl)quinazolin-7-yl ethanesulfonate] | 0.218 µM
CC(C)Sc1ccc2c(N3C[C@H](N)[C@@H](N4CCCCC4=O)C3)ncnc2c1 [Example 137, 1-((3S,4S)-4-amino-1-(7-(isopropylthio)quinazolin-4-yl)pyrrolidin-3-yl)piperidin-2-one] | 0.116 µM
CCSc1ccc2c(N3C[C@H](N)[C@@H](N4CCCCC4=O)C3)ncnc2c1 [Example 140, 1-((3S,4S)-4-amino-1-(7-(ethylthio)quinazolin-4-yl)pyrrolidin-3-yl)piperidin-2-one] | 0.055 µM
CS(=O)(=O)c1ccc(S(=O)(=O)Oc2ccc3c(N4C[C@H](N)[C@@H](N5CCCCC5=O)C4)ncnc3c2)cc1 [Example 141, 4-((3S,4S)-3-amino-4-(2-oxopiperidin-1-yl)pyrrolidin-1-yl)quinazolin-7-yl 4-(methylsulfonyl)benzenesulfonate] | 0.278 µM
N[C@H]1CN(c2ncnc3cc(OS(=O)(=O)c4ccc(F)cc4F)ccc23)C[C@@H]1N1CCCCC1=O [Example 143, 4-((3S,4S)-3-amino-4-(2-oxopiperidin-1-yl)pyrrolidin-1-yl)quinazolin-7-yl 2,4-difluorobenzenesulfonate] | 0.28 µM
N[C@H]1CN(c2nncc3ccccc23)C[C@@H]1N1CCCCC1=O [Example 145, 1-((3S,4S)-4-amino-1-(phthalazin-1-yl)pyrrolidin-3-yl)piperidin-2-one trifluoroacetate] | 0.224 µM
COc1ccc2c(N3C[C@H](N)[C@@H](N4CCCCC4=O)C3)nncc2c1 [Example 146, 1-((3S,4S)-4-amino-1-(6-methoxyphthalazin-1-yl)pyrrolidin-3-yl)piperidin-2-one] | 0.0462 µM
N[C@H]1CN(c2ncnc3[nH]cnc23)C[C@@H]1N1CCCCC1=O [Example 148, 1-[(3S,4S)-4-Amino-1-(9H-purin-6-yl)-pyrrolidin-3-yl]-piperidin-2-one hydrochloride] | 0.415 µM
N[C@H]1CN(c2ncnc3c2ncn3CC(F)(F)F)C[C@@H]1N1CCCCC1=O [Example 149, 1-{(2S,4S)-4-Amino-1-[9-(2,2,2-trifluoro-ethyl)-9H-purin-6-yl]-pyrrolidin-3-yl}-piperidin-2-onehydrochloride] | 0.497 µM
N[C@H]1CN(c2ncnc3c2ncn3C2CC2)C[C@@H]1N1CCCCC1=O [Example 150, 1-[(3S,4S)-4-Amino-1-(9-cyclopropyl-9H-purin-6-yl)-pyrrolidin-3-yl]-piperidin-2-one hydrochloride] | 0.189 µM
N[C@H]1CN(C(=O)c2cc3cc(Cl)ccc3o2)C[C@@H]1N1CCCCC1=O [Example 154, 1-[(3S,4S)-4-Amino-1-[(5-chloro-1-benzofuran-2-yl)carbonyl]-pyrrolidin-3-yl]-piperidin-2-one hydrochloride] | 0.0923 µM
COc1ccc2oc(C(=O)N3C[C@H](N)[C@@H](N4CC(F)(F)CCC4=O)C3)cc2c1 [Example 155, 1-((3S,4S)-4-amino-1-(5-methoxybenzofuran-2-carbonyl)pyrrolidin-3-yl)-5,5-difluoropiperidin-2-one] | 0.102 µM
N-((R)-1-{4-[(3S,4S)-3-Amino-4-(2-oxo-piperidin-1-yl)-pyrrolidin-1-yl]-[1,3,5]triazin-2-yl}-pyrrolidin-3-yl)-acetamidetrifluoracetate [Example 43] | 0.227 µM

Now from value to compound:

IC50 | Compound
0.00839 µM | N[C@H]1CN(c2cc(N3CCC(F)(F)C3)ncn2)C[C@@H]1N1CC(F)(F)CCC1=O [Example 2, 1-((3S,4S)-4-amino-1-(6-(3,3-difluoropyrrolidin-1-yl)pyrimidin-4-yl)pyrrolidin-3-yl)-5,5-difluoropiperidin-2-one]
0.72 µM | CSc1ccc(Sc2ccc3c(N4C[C@H](N)[C@@H](N5CCCCC5=O)C4)ncnc3c2)cc1 [Example 132]
0.2 µM | N[C@H]1CN(c2ncnc3cc(Oc4ccc(OC(F)(F)F)cc4)ccc23)C[C@@H]1N1CCCCC1=O [Example 133, 1-((3S,4S)-4-amino-1-(7-(4-(trifluoromethoxy)phenoxy)quinazolin-4-yl)pyrrolidin-3-yl)piperidin-2-one]
0.128 µM | CS(=O)(=O)Oc1ccc2c(N3C[C@H](N)[C@@H](N4CCCCC4=O)C3)ncnc2c1 [Example 135, 4-((3S,4S)-3-amino-4-(2-oxopiperidin-1-yl)pyrrolidin-1-yl)quinazolin-7-yl methanesulfonate]
0.135 µM | CC(C)S(=O)(=O)Oc1ccc2c(N3C[C@H](N)[C@@H](N4CCCCC4=O)C3)ncnc2c1 [Example 136, 4-((3S,4S)-3-amino-4-(2-oxopiperidin-1-yl)pyrrolidin-1-yl)quinazolin-7-yl propane-2-sulfonate]
0.133 µM | COc1nc(OC)nc(N2C[C@H](N)[C@@H](N3CCCCC3=O)C2)n1 [Example 147, 1-[(3S,4S)-4-Amino-1-(4,6-dimethoxy-[1,3,5]triazin-2-yl)-pyrrolidin-3-yl]-piperidin-2-onetrifluoroacetate]
> 3 µM | N[C@H]1CN(c2ncnc3c2ncn3C2CC2)C[C@@H]1N1CCCC1=O [Example 151, 1-((3S,4S)-4-Amino-1-(9-cyclopropyl-9H-purin-6-yl)pyrrolidin-3-yl)pyrrolidin-2-one hydrochloride]
> 30 µM | COc1ccc(Cl)c2c(N3C[C@H](N)[C@@H](N4CCCCC4=O)C3)ncnc12 [Example 152, 1-((3S,4S)-4-amino-1-(5-chloro-8-methoxyquinazolin-4-yl)pyrrolidin-3-yl)piperidin-2-one trifluoroacetate]
0.0786 µM | N[C@H]1CN(C(=O)c2cc3cc(Cl)ccc3o2)C[C@@H]1N1CC(F)(F)CCC1=O [Example 153, 1-((3S,4S)-4-amino-1-(5-chlorobenzofuran-2-carbonyl)pyrrolidin-3-yl)-5,5-difluoropiperidin-2-one]

tested on: KK/H1J mice; experiment: In vivo assay for glucose lowering (oral glucose tolerance test); conditions: 4-6 week old fasted KK/H1J mice, oral dosing in 0.5% methylcellulose, glucose at 15 minutes, plasma glucose at 45 minutes
Procedure: The glucose lowering effects of the compound of Example 2 were exemplified in 4-6 week old KK/H1J mice (Jackson Labs) in the context of an oral glucose tolerance test.
The mice were fasted overnight (about 14-18 hours), but allowed free access to water. After fasting, (time “t”=0), 25 μL of blood was drawn from the retro-orbital sinus and added to 0.025% heparinized saline (100 μL) on ice. The mice (10 per group) were then orally dosed with a solution of a compound of formula (1) in 0.5% methylcellulose (0.2 mL/mouse). Two controls groups received only 0.5% methylcellulose. At time=15 minutes, the mice were bled, as described above, and then dosed with […] glucose in distilled water (0.2 mL/mouse). The first control group was dosed with glucose. The second control group was dosed with water. At time=45 minutes, the mice were again bled, as described above. The blood samples were centrifuged, the plasma collected and analyzed for glucose content on a Roche-Hitachi 912 glucose analyzer.

Compound | percent (%) inhibition of glucose excursion relative to the two control groups
N[C@H]1CN(c2cc(N3CCC(F)(F)C3)ncn2)C[C@@H]1N1CC(F)(F)CCC1=O [Example 2, 1-((3S,4S)-4-amino-1-(6-(3,3-difluoropyrrolidin-1-yl)pyrimidin-4-yl)pyrrolidin-3-yl)-5,5-difluoropiperidin-2-one] | 39.8%
